The record followed here is ChEMBL document CHEMBL1649561, “H-NS modulates multidrug resistance of Salmonella enterica serovar Typhimurium by repressing multidrug efflux genes acrEF” (2009).

Converted amounts (≈) assume the structure as drawn.

What all share (assay type): functional
Experiment [1] has as its system Salmonella enterica. Nature of the experiment: Antibacterial activity against acrB-deficient Salmonella enterica NKS422 harboring acrEF gene by CLSI method.
The subject of experiment [2] is Salmonella enterica. As to the kind of experiment: Antibacterial activity against acrB-deficient Salmonella enterica NKS175 by CLSI method.
For experiment [3], the system named is Salmonella enterica. As to the kind of experiment: Antibacterial activity against acrB-deficient Salmonella enterica NKS416 harboring acrEF, hns gene by CLSI method.
For experiment [4], the system named is Salmonella enterica. Nature of the experiment: Antibacterial activity against tolC-deficient Salmonella enterica NKS419 harboring hns gene by CLSI method.
Experiment [5] deals with Salmonella enterica. As to the kind of experiment: Antibacterial activity against acrB-deficient Salmonella enterica NKS291 harboring hns gene by CLSI method.
The test system of experiment [6] is Salmonella enterica. As to the kind of experiment: Antibacterial activity against Salmonella enterica ATCC 14028 by CLSI method.
Experiment [7] concerns Salmonella enterica. Nature of the experiment: Antibacterial activity against tolC-deficient Salmonella enterica NKS174 by CLSI method.
Experiment [8] has as its system Salmonella enterica. Nature of the experiment: Antibacterial activity against acrEF-deficient Salmonella enterica NKS176 by CLSI method.

As for `CN(C)c1ccc2nc3ccc(N(C)C)cc3[s+]c2c1.[Cl-]` [METHYLENE BLUE ANHYDROUS], the MIC is 16 µg/mL in the experiment on Salmonella enterica [1]; 16 µg/mL with Salmonella enterica [2]; 16 µg/mL against Salmonella enterica [3]; 16 µg/mL with Salmonella enterica [4]; 512 µg/mL with Salmonella enterica [5]; greater than 512 µg/mL in the experiment with Salmonella enterica [6]. Besides, the values for the MIC against Salmonella enterica [7] and in the experiment on Salmonella enterica [8] were 16 µg/mL and greater than 512 µg/mL, respectively.
As for `Cc1onc(-c2ccccc2Cl)c1C(=O)N[C@@H]1C(=O)N2[C@@H]1SC(C)(C)[C@@H]2C(=O)O` [CLOXACILLIN], the MIC against Salmonella enterica [1] amounted to 4 µg/mL (≈ 9.18 µM); in the experiment on Salmonella enterica [2], 4 µg/mL (≈ 9.18 µM); in the experiment on Salmonella enterica [3], 4 µg/mL (≈ 9.18 µM); in the experiment on Salmonella enterica [4], 0.5 µg/mL (≈ 1.15 µM); in the experiment with Salmonella enterica [5], 128 µg/mL (≈ 294 µM); against Salmonella enterica [6], 512 µg/mL (≈ 1170 µM). In addition, the minimum inhibitory concentration (MIC) against Salmonella enterica [7] came to 0.5 µg/mL (≈ 1.15 µM); with Salmonella enterica [8], 512 µg/mL (≈ 1170 µM).
Consider `CCOc1ccc2ccccc2c1C(=O)N[C@@H]1C(=O)N2[C@@H]1SC(C)(C)[C@@H]2C(=O)O` [NAFCILLIN], for which the MIC with Salmonella enterica [1] was 4 µg/mL (≈ 9.65 µM); in the experiment with Salmonella enterica [2] it was 8 µg/mL (≈ 19.3 µM); in the experiment with Salmonella enterica [3], 4 µg/mL (≈ 9.65 µM); against Salmonella enterica [4], 1 µg/mL (≈ 2.41 µM); with Salmonella enterica [5] it was 64 µg/mL (≈ 154 µM); with Salmonella enterica [6] it was greater than 512 µg/mL. Besides, the MIC in the experiment with Salmonella enterica [7] is 1 µg/mL (≈ 2.41 µM); against Salmonella enterica [8], greater than 512 µg/mL.
For `Cc1onc(-c2ccccc2)c1C(=O)N[C@@H]1C(=O)N2[C@@H]1SC(C)(C)[C@@H]2C(=O)O` [OXACILLIN], the minimum inhibitory concentration (MIC) turned out to be 1 µg/mL (≈ 2.49 µM) in the experiment with Salmonella enterica [1]; 2 µg/mL (≈ 4.98 µM) in the experiment on Salmonella enterica [2]; 1 µg/mL (≈ 2.49 µM) in the experiment on Salmonella enterica [3]; 0.5 µg/mL (≈ 1.25 µM) with Salmonella enterica [4]; 16 µg/mL (≈ 39.9 µM) against Salmonella enterica [5]; 512 µg/mL (≈ 1280 µM) with Salmonella enterica [6]. Besides, the MIC against Salmonella enterica [7] was 0.5 µg/mL (≈ 1.25 µM); with Salmonella enterica [8] it was 512 µg/mL (≈ 1280 µM).
In the case of `Cn1nnnc1SCC1=C(C(=O)O)N2C(=O)[C@@H](NC(=O)[C@H](O)c3ccccc3)[C@H]2SC1` [CEFAMANDOLE], the MIC in the experiment with Salmonella enterica [1] stood at 0.063 µg/mL (≈ 0.136 µM); with Salmonella enterica [2], 0.063 µg/mL (≈ 0.136 µM); with Salmonella enterica [3] it was 0.063 µg/mL (≈ 0.136 µM); against Salmonella enterica [4], 0.063 µg/mL (≈ 0.136 µM); against Salmonella enterica [5], 0.25 µg/mL (≈ 0.541 µM); in the experiment on Salmonella enterica [6] it was 1 µg/mL (≈ 2.16 µM). Further, the results for the MIC with Salmonella enterica [7] and against Salmonella enterica [8] were 0.063 µg/mL (≈ 0.136 µM) and 0.5 µg/mL (≈ 1.08 µM), respectively.
With `CC/N=c1\cc2oc3cc(NCC)c(C)cc3c(-c3ccccc3C(=O)OCC)c-2cc1C.Cl` [RHODAMINE 6G HYDROCHLORIDE], the MIC is 8 µg/mL against Salmonella enterica [1]; 8 µg/mL in the experiment on Salmonella enterica [2]; 8 µg/mL with Salmonella enterica [3]; 8 µg/mL against Salmonella enterica [4]; 32 µg/mL in the experiment on Salmonella enterica [5]; greater than 512 µg/mL against Salmonella enterica [6]. Further, the MIC in the experiment on Salmonella enterica [7] was 8 µg/mL; with Salmonella enterica [8] it was greater than 512 µg/mL.
